Laboratory results published in publication PMC10712727, “Safety, Tolerability, and Pharmacokinetics of Senaparib, a Novel PARP1/2 Inhibitor, in Chinese Patients With Advanced Solid Tumors: A Phase I Trial” (The Oncologist, 2023).

Tested on: patients with advanced solid tumors
Assay: Safety: treatment-emergent and senaparib-related adverse events graded per NCI CTCAE v4.03
Assay type: in vivo
Experimental: This phase I, open-label, multicenter, dose-escalation, and dose-expansion study was conducted at three national clinical institutions in China. […] At baseline, all patients enrolled in the dose-escalation phase had to have at least one evaluable lesion, and those in the dose-expansion period had to have at least one measurable lesion, according to Response Evaluation Criteria in Solid Tumors version 1.1 (RECIST v1.1).[16] Entry to the dose-expansion cohort required the presence of a BRCA mutation, with the exception of patients with ovarian carcinoma, fallopian tube carcinoma, and primary peritoneal carcinoma. Full study eligibility criteria are provided in Supplementary Table S1.
Dose escalation was conducted using a modified Fibonacci 3 + 3 method (Supplementary Fig. S1).[17] Patients were administered oral senaparib from a planned starting dose of 2 mg once daily (QD), with preliminary dose escalation to 120 mg via nine dose groups, in order of their entry into the study. At a given dose level, each patient received a single dose of senaparib followed by a 7-day washout period. They then entered a continuous dosing period to confirm the safety and PK profile, in which they received senaparib QD from day 1 to day 21 of each 3-week cycle. Progression to the next higher dose required approval from the Data Safety Monitoring Committee (DSMC) upon review of the safety and PK data of the previous dose. A 50-mg twice-daily (BID) dosing group was added (planned enrollment, n = 6 patients) based on a DSMC review of the safety, PK, and efficacy analysis of the completed QD dose groups in the phase I clinical trial of senaparib dose escalation in Australia (NCT03507543), which commenced prior to the start of this trial.
The dose-expansion period included 3 populations: dose groups in which at least one patient achieved complete response (CR) or partial response (PR) per RECIST v1.1[16] and 1 dose group higher (evaluated for safety), as well as the dose group at the maximum tolerated dose (MTD)/recommended phase II dose (RP2D). Each of these groups included those patients in the respective dose-escalation group plus a planned additional 10 patients (approximately 20 patients in the MTD/RP2D group) with BRCA^mut+ solid tumors (ovarian, breast, or prostate cancer were preferred, and ovarian cancer could be BRCA wild type). Patients received senaparib monotherapy orally QD or BID (50-mg dose only) over each 3-week cycle until disease progression or unacceptable toxicity.
DLTs were predefined toxicities (Supplementary Table S2) recorded over the 7 days following the single-dose administration of senaparib and during the first treatment cycle (day 1-day 21) for each dose group in the dose-escalation period only. The MTD was defined as the maximum dose at which ≤1/6 patients experienced a DLT. Senaparib PK parameters were derived from blood samples collected from patients after the single administration, and at regular intervals during the first cycle of the dose-escalation and dose-expansion periods. Plasma concentrations of senaparib were determined using high-performance liquid chromatography-tandem mass spectrometry. Tumor response was assessed every 6 weeks per RECIST v1.1,[16] recording objective response rate (ORR), disease control rate (DCR), duration of response (DOR), and progression-free survival (PFS) by dose level for all patients and for those harboring BRCA^mut+ tumors.

O=C(c1cc(Cn2c(=O)[nH]c(=O)c3c(F)cccc32)ccc1F)N1CCN(c2ncccn2)CC1 [Senaparib]
2 (66.7) n (%): Anemia TRAE, All (5 mg QD n = 3)
1 (33.3) n (%): Anemia TRAE, Gr≥3 (5 mg QD n = 3) | Any TRAE, Gr≥3 (5 mg QD n = 3) | Appetite decreased TRAE, All (5 mg QD n = 3) | Asthenia TRAE, All (5 mg QD n = 3) | Blood bilirubin increased TRAE, All (5 mg QD n = 3) | Nausea TRAE, All (5 mg QD n = 3) | Neutrophil count decreased TRAE, All (5 mg QD n = 3) | Platelet count decreased TRAE, All (5 mg QD n = 3) | TRAEs Grade ≥3, patients (5 mg QD n = 3) | WBC decreased TRAE, All (5 mg QD n = 3) | ALT increased TRAE, All (10 mg QD n = 3) | AST increased TRAE, All (10 mg QD n = 3) | Anemia TRAE, All (10 mg QD n = 3) | Appetite decreased TRAE, All (10 mg QD n = 3)
0 n (%): ALT increased TRAE, All (2 mg QD n = 1) | ALT increased TRAE, Gr≥3 (2 mg QD n = 1) | AST increased TRAE, All (2 mg QD n = 1) | AST increased TRAE, Gr≥3 (2 mg QD n = 1) | Anemia TRAE, All (2 mg QD n = 1) | Anemia TRAE, Gr≥3 (2 mg QD n = 1) | Any TRAE, Gr≥3 (2 mg QD n = 1) | Appetite decreased TRAE, Gr≥3 (2 mg QD n = 1) | Asthenia TRAE, All (2 mg QD n = 1) | Asthenia TRAE, Gr≥3 (2 mg QD n = 1) | Blood bilirubin increased TRAE, All (2 mg QD n = 1) | Blood bilirubin increased TRAE, Gr≥3 (2 mg QD n = 1) | Blood creatinine increased TRAE, All (2 mg QD n = 1) | Blood creatinine increased TRAE, Gr≥3 (2 mg QD n = 1) | Hypokalemia TRAE, Gr≥3 (2 mg QD n = 1) | Nausea TRAE, All (2 mg QD n = 1) | Nausea TRAE, Gr≥3 (2 mg QD n = 1) | Neutrophil count decreased TRAE, All (2 mg QD n = 1) | Neutrophil count decreased TRAE, Gr≥3 (2 mg QD n = 1) | Platelet count decreased TRAE, All (2 mg QD n = 1) | Platelet count decreased TRAE, Gr≥3 (2 mg QD n = 1) | TEAEs leading to death, patients (2 mg QD n = 1) | TEAEs leading to dose discontinuation, patients (2 mg QD n = 1) | TEAEs leading to dose interruption, patients (2 mg QD n = 1) | TEAEs leading to dose reduction, patients (2 mg QD n = 1) | TRAEs Grade ≥3, patients (2 mg QD n = 1) | Vomiting TRAE, All (2 mg QD n = 1) | Vomiting TRAE, Gr≥3 (2 mg QD n = 1) | WBC decreased TRAE, All (2 mg QD n = 1) | WBC decreased TRAE, Gr≥3 (2 mg QD n = 1) | ALT increased TRAE, All (5 mg QD n = 3) | ALT increased TRAE, Gr≥3 (5 mg QD n = 3) | AST increased TRAE, All (5 mg QD n = 3) | AST increased TRAE, Gr≥3 (5 mg QD n = 3) | Appetite decreased TRAE, Gr≥3 (5 mg QD n = 3) | Asthenia TRAE, Gr≥3 (5 mg QD n = 3) | Blood bilirubin increased TRAE, Gr≥3 (5 mg QD n = 3) | Blood creatinine increased TRAE, All (5 mg QD n = 3) | Blood creatinine increased TRAE, Gr≥3 (5 mg QD n = 3) | Hypokalemia TRAE, All (5 mg QD n = 3) | Hypokalemia TRAE, Gr≥3 (5 mg QD n = 3) | Nausea TRAE, Gr≥3 (5 mg QD n = 3) | Neutrophil count decreased TRAE, Gr≥3 (5 mg QD n = 3) | Platelet count decreased TRAE, Gr≥3 (5 mg QD n = 3) | SAEs, patients (5 mg QD n = 3) | TEAEs leading to death, patients (5 mg QD n = 3) | TEAEs leading to dose discontinuation, patients (5 mg QD n = 3) | TEAEs leading to dose interruption, patients (5 mg QD n = 3) | TEAEs leading to dose reduction, patients (5 mg QD n = 3) | Vomiting TRAE, All (5 mg QD n = 3) | Vomiting TRAE, Gr≥3 (5 mg QD n = 3) | WBC decreased TRAE, Gr≥3 (5 mg QD n = 3) | ALT increased TRAE, Gr≥3 (10 mg QD n = 3) | AST increased TRAE, Gr≥3 (10 mg QD n = 3) | Anemia TRAE, Gr≥3 (10 mg QD n = 3) | Any TEAE, Gr≥3 (10 mg QD n = 3) | Any TRAE, Gr≥3 (10 mg QD n = 3) | Appetite decreased TRAE, Gr≥3 (10 mg QD n = 3) | Asthenia TRAE, All (10 mg QD n = 3) | Asthenia TRAE, Gr≥3 (10 mg QD n = 3) | Blood bilirubin increased TRAE, All (10 mg QD n = 3) | Blood bilirubin increased TRAE, Gr≥3 (10 mg QD n = 3) | Blood creatinine increased TRAE, All (10 mg QD n = 3)
6 n ev: TRAEs, events (2 mg QD n = 1)
5 n ev: TEAE Grade ≥3, events (5 mg QD n = 3)
1 n ev: SAEs, events (2 mg QD n = 1) | TEAE Grade ≥3, events (2 mg QD n = 1) | TRAEs Grade ≥3, events (5 mg QD n = 3)
0 n ev: TEAEs leading to death, events (2 mg QD n = 1) | TEAEs leading to dose discontinuation, events (2 mg QD n = 1) | TEAEs leading to dose interruption, events (2 mg QD n = 1) | TEAEs leading to dose reduction, events (2 mg QD n = 1) | TRAEs Grade ≥3, events (2 mg QD n = 1) | SAEs, events (5 mg QD n = 3) | TEAEs leading to death, events (5 mg QD n = 3) | TEAEs leading to dose discontinuation, events (5 mg QD n = 3) | TEAEs leading to dose interruption, events (5 mg QD n = 3) | TEAEs leading to dose reduction, events (5 mg QD n = 3)
28 n ev: Any TEAE, events (5 mg QD n = 3)
13 n ev: TRAEs, events (5 mg QD n = 3)
3 (100) n (%): Any TEAE, All (5 mg QD n = 3) | Any TEAE, Gr≥3 (5 mg QD n = 3) | Any TEAE, patients (5 mg QD n = 3) | Any TRAE, All (5 mg QD n = 3) | TEAE Grade ≥3, patients (5 mg QD n = 3) | TRAEs, patients (5 mg QD n = 3) | Any TEAE, All (10 mg QD n = 3) | Any TEAE, patients (10 mg QD n = 3) | Any TRAE, All (10 mg QD n = 3)
9 n ev: Any TEAE, events (2 mg QD n = 1)
1 (100) n (%): Any TEAE, All (2 mg QD n = 1) | Any TEAE, Gr≥3 (2 mg QD n = 1) | Any TEAE, patients (2 mg QD n = 1) | Any TRAE, All (2 mg QD n = 1) | Appetite decreased TRAE, All (2 mg QD n = 1) | Hypokalemia TRAE, All (2 mg QD n = 1) | SAEs, patients (2 mg QD n = 1) | TEAE Grade ≥3, patients (2 mg QD n = 1) | TRAEs, patients (2 mg QD n = 1)
10 n ev: Any TEAE, events (10 mg QD n = 3)
